Literature values, collected in US10105372B2, “Methods of treating obesity using antioxidant inflammation modulators” (REATA PHARMACEUTICALS, INC., priority 2010, dated 2018).

Conditions: monkey, in vivo, po; cited from earlier work

Compound: COC(=O)[C@]12CCC(C)(C)C[C@H]1[C@H]1C(=O)C=C3[C@@]4(C)C=C(C#N)C(=O)C(C)(C)[C@@H]4CC[C@@]3(C)[C@]1(C)CC2 [Form B, CDDO-Me]
- bioavailability: higher than that of Form A
